Experiments:
Format in all cases: cell-based
[1] = molecular target: T1, Ba/F3 BCR-ABL1 T315M (Homo sapiens, UniProt P00519+P11274, T315M); experiment: Cell growth inhibitory activity assay (CellTiter-Glo), Ba/F3 BCR-ABL1 T315M cells; settings: 72 h, CTG cell viability
T1 construct: BCR (N-terminal fusion partner of the oncoprotein); expressed in transfected cells; host or cells: Ba/F3 (lentiviral transduction, monoclonal line)
Procedure: In this assay, the Celltiter-Glo (CTG) kit provided by Promega was used, and it is a homogeneous cell viability assay method. The cell viability of cultured cells was measured by quantifying ATP. K562 cells were purchased from Nanjing Kebai, product number CBP60529; Ba/F3 parental cells were purchased from RIKEN BRC, product number RCB0805; other cells containing BCR-ABL1 WT, BCR-ABL1 T315I, BCR-ABL1 T315M, BCR-ABL1 Y253H/E255K, BCR-ABL1 E255V/T3151, BCR-ABL1 A424T, BCR-ABL1 A337V, BCR-ABL1 P465S, BCR-ABL1 V468F, and BCR-ABL1 I502L were all monoclonal engineered cell lines obtained by transducting Ba/F3 parental cells with the lentivirus plasmids containing WT or corresponding mutated BCR-ABL1.
The steps of cell viability assay are as follows: • a) Cells in logarithmic growth phase were collected. Cell suspension was prepared and the cells were counted. Concentration of the cells was calculated. • b) The cell suspension was diluted to the required concentration and then added to the middle wells of a 96-well plate, and PBS was added to the edge wells. The wells with no cells and only culture medium were used as blank controls. • c) In addition to the cell plate used for compound analysis, another 96-well plate was prepared as a T0 plate, and 3-6 blank wells and 3-6 cell wells were added. The next day, CTG was used to test the cell viability as the T0 viability value of the cells. • d) The cell plate was incubated at 37 °C in a 5% CO2 incubator overnight. • e) The next day, each concentration of a compound subjected to a gradient dilution was added, and the cell plate was incubated at 37 °C in a 5% CO2 incubator for 72 h. The wells with no compound and only 0.5% DMSO were used as positive controls for cell growth. • f) CTG reagent (CellTiter-Glo kit) was added according to the manufacturer's instructions to test the cell viability value. • g) The plate was read using Biotek cytation3.0 microplate reader and the data were exported. • h) IC50 was calculated using GraphPad Prism 7.0 software.
The IC50 (half-maximal inhibitory concentration) of the compound was obtained using the following nonlinear fitting formula: Y = Bottom + (Top−Bottom)/(1+10^(∧)((LogIC50−X)*HillSlope)) [formula] • X: Log value of the compound concentration • Y: Inhibition rate (% inhibition) • Top: Maximum response • Bottom: Baseline response • HillSlope: Slope of the curve
The formula for calculating cell inhibition rate (inhibition rate %) was: [formula]

[2] = molecular target: T2, Ba/F3 BCR-ABL1 T315I (Homo sapiens, UniProt P00519+P11274, T315I); experiment: Cell growth inhibitory activity assay (CellTiter-Glo), Ba/F3 BCR-ABL1 T315I cells; settings: 72 h, CTG cell viability
T2 construct: BCR (N-terminal fusion partner of the oncoprotein); expressed in transfected cells; host or cells: Ba/F3 (lentiviral transduction, monoclonal line)
Procedure, shortened: (§1)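 Ba/F3 lines stably transduced by lentivirus with WT or mutant BCR-ABL1, alongside untransduced parental Ba/F3, were seeded and incubated overnight at 37 °C, 5% CO2, then exposed to serially diluted compound for 72 h. Viability was read as ATP by CellTiter-Glo luminescence against a day-of-dosing T0 plate; IC50 from four-parameter nonlinear fit.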

[3] = test system: Ba/F3 parental cells; experiment: Cell growth inhibitory activity assay (CellTiter-Glo), Ba/F3 parental cells; settings: Mus musculus, BaF3, 72 h, CTG cell viability, read-out: IC50 Ba/F3 BCR-ABL1 Parental
Procedure, shortened: as §1

[4] = test system: K562 cells; experiment: Cell growth inhibitory activity assay (CellTiter-Glo), K562 cells; settings: Homo sapiens, 72 h, CTG cell viability
Procedure, shortened: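 Growth inhibition of human K562 cells, sourced from Nanjing Kebai (CBP60529), was assessed with Promega's CellTiter-Glo kit, which measures viability through ATP quantification. Log-phase cells went into the inner wells of 96-well plates, with PBS in edge wells, incubated overnight at 37 °C and 5% CO2, then exposed to serially diluted compound for 72 h.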

[5] = molecular target: T3, Ba/F3 BCR-ABL1 WT (Homo sapiens, UniProt P00519+P11274); experiment: Cell growth inhibitory activity assay (CellTiter-Glo), Ba/F3 BCR-ABL1 WT cells; settings: 72 h, CTG cell viability
T3 construct: BCR (N-terminal fusion partner of the oncoprotein); expressed in transfected cells; host or cells: Ba/F3 (lentiviral transduction, monoclonal line)
Procedure, shortened: as §1

SMILES | IC50 [4] | IC50 [1] | IC50 [2] | IC50 [3] | IC50 [5]
CC(=O)N[C@H]1CCC2c3cc(C(=O)Nc4ccc(OC(F)(F)Cl)cc4)cc(-c4cnccn4)c3N(C(C)C)C21 (stereo partly drawn) [T-12-A, (3S)-3-acetamido-N-(4-(chlorodifluoromethoxy)phenyl)-4-isopropyl-5-(pyrazin-2-yl)-1,2,3,3a,4,8b-hexahydrocyclopenta[b]indole-7-carboxamide] | 50 to 1000 nM | > 1000 nM | > 1000 nM | > 1000 nM | 50 to 1000 nM
O=C(Nc1ccc(OC(F)(F)Cl)cc1)c1cnc(N2CC[C@@H](F)C2)c(-c2cnc3c(c2)-c2c(cnn2-c2ncc(F)cn2)C3)c1 [T-6-B, (R)-N-(4-(chlorodifluoromethoxy)phenyl)-5-(1-(5-fluoropyrimidin-2-yl)-1,4-dihydropyrazolo[3',4':3,4]cyclopenta[1,2-b]pyridin-7-yl)-6-(3-fluoropyrrolidin-1-yl)nicotinamide] | ≤ 5 nM |  | 5 to 50 nM | > 1000 nM | ≤ 5 nM
O=C(Nc1ccc(OC(F)(F)Cl)cc1)c1cnc(N2CC[C@@H](F)C2)c(-c2cnc3c(c2)-c2nn(-c4ncc(F)cn4)cc2C3)c1 [T-6-A, (R)-N-(4-(chlorodifluoromethoxy)phenyl)-5-(2-(5-fluoropyrimidin-2-yl)-2,4-dihydropyrazolo[3',4':3,4]cyclopenta[1,2-b]pyridin-7-yl)-6-(3-fluoropyrrolidin-1-yl)nicotinamide] | ≤ 5 nM |  | ≤ 5 nM | > 1000 nM | ≤ 5 nM
C[C@@H]1COCc2nc3cc(C(=O)Nc4ccc(OC(F)(F)Cl)cc4)cc(-c4cnc5c(c4)-c4c(cnn4CCOC(C)(C)C)C5)c3n21 [T-56-B, (R)-6-(1-(2-(tert-butoxy)ethyl)-1,4-dihydropyrazolo[3',4':3,4]cyclopenta[1,2-b]pyridin-7-yl)-N-(4-(chlorodifluoromethoxy)phenyl)-4-methyl-3,4-dihydro-1H-benzo[4,5]imidazo[2,1-c][1,4]oxazine-8-carboxamide] | ≤ 5 nM |  | > 1000 nM | > 1000 nM | ≤ 5 nM
COc1ccc(-c2ccnc(-n3ncc4c3-c3cc(-c5cc(C(=O)Nc6ccc(OC(F)(F)Cl)cc6)cc6nc7n(c56)[C@H](C)COC7)cnc3C4)n2)cc1F [T-91-A, (R)-N-(4-(chlorodifluoromethoxy)phenyl)-6-(1-(4-(3-fluoro-4-methoxyphenyl)pyrimidin-2-yl)-1,4-dihydropyrazolo[3',4':3,4]cyclopenta[1,2-b]pyridin-7-yl)-4-methyl-3,4-dihydro-1H-benzo[4,5]imidazo[2,1-c][1,4]oxazine-8-carboxamide] | ≤ 5 nM |  | 50 to 1000 nM | > 1000 nM | 5 to 50 nM

Second part, led by results:

IC50 [4] | SMILES | IC50 [1] | IC50 [2] | IC50 [3] | IC50 [5]
≤ 5 nM | C[C@@H]1CCS(=O)(=O)c2nc3cc(C(=O)Nc4ccc(OC(F)(F)Cl)cc4)cc(-c4cnccn4)c3n21 [T-118, (R)-N-(4-(chlorodifluoromethoxy)phenyl)-4-methyl-6-(pyrazin-2-yl)-3,4-dihydro-2H-benzo[4,5]imidazo[2,1-b][1,3]thiazine-8-carboxamide 1,1-dioxide] | 50 to 1000 nM | 5 to 50 nM | > 1000 nM | ≤ 5 nM
≤ 5 nM | C[C@@H]1CC[S+]([O-])c2nc3cc(C(=O)Nc4ccc(OC(F)(F)Cl)cc4)cc(-c4cnc5c(c4)C(=O)N(C)C5)c3n21 (stereo partly drawn) [T-27, (4R)-N-(4-(chlorodifluoromethoxy)phenyl)-4-methyl-6-(6-methyl-5-oxo-6,7-dihydro-5H-pyrrolo[3,4-b]pyridin-3-yl)-3,4-dihydro-2H-benzo[4,5]imidazo[2,1-b][1,3]thiazine-8-carboxamide 1-oxide] | > 1000 nM | 50 to 1000 nM | > 1000 nM | 5 to 50 nM
≤ 5 nM | C[C@@H]1CCC(O)c2nc3cc(C(=O)Nc4ccc(OC(F)(F)Cl)cc4)cc(-c4cnc5c(c4)C(=O)NC5)c3n21 (stereo partly drawn) [T-33, (1R)-N-(4-(chlorodifluoromethoxy)phenyl)-4-hydroxy-1-methyl-9-(5-oxo-6,7-dihydro-5H-pyrrolo[3,4-b]pyridin-3-yl)-1,2,3,4-tetrahydrobenzo[4,5]imidazo[1,2-a]pyridine-7-carboxamide] | 50 to 1000 nM | 50 to 1000 nM | > 1000 nM | 5 to 50 nM
≤ 5 nM | C[C@@H]1CC[S+]([O-])c2nc3cc(C(=O)Nc4ccc(OC(F)(F)Cl)cc4)cc(-c4cnccn4)c3n21 (stereo partly drawn) [T-117, (4R)-N-(4-(chlorodifluoromethoxy)phenyl)-4-methyl-6-(pyrazin-2-yl)-3,4-dihydro-2H-benzo[4,5]imidazo[2,1-b][1,3]thiazine-8-carboxamide 1-oxide] | > 1000 nM | 5 to 50 nM | > 1000 nM | ≤ 5 nM
≤ 5 nM | C[C@@H]1COCc2nc3cc(C(=O)Nc4ccc(OC(F)(F)Cl)cc4)cc(-c4ccc5c(c4)-c4ncsc4C5)c3n21 [T-113, (R)-N-(4-(chlorodifluoromethoxy)phenyl)-6-(8H-indeno[1,2-d]thiazol-5-yl)-4-methyl-3,4-dihydro-1H-benzo[4,5]imidazo[2,1-c][1,4]oxazine-8-carboxamide] |  | 5 to 50 nM | > 1000 nM | ≤ 5 nM
≤ 5 nM | C[C@@H]1COCc2nc3cc(C(=O)Nc4ccc(OC(F)(F)Cl)cc4)cc(-c4cnc5c(c4)C(=O)CC5)c3n21 [T-58, (R)-N-(4-(chlorodifluoromethoxy)phenyl)-4-methyl-6-(5-oxo-6,7-dihydro-5H-cyclopenta[b]pyridin-3-yl)-3,4-dihydro-1H-benzo[4,5]imidazo[2,1-c][1,4]oxazine-8-carboxamide] |  | 5 to 50 nM | > 1000 nM | ≤ 5 nM
≤ 5 nM | C[C@@H]1COCc2nc3cc(C(=O)Nc4ccc(OC(F)(F)Cl)cc4)cc(-c4cnc5c(c4)-c4nn(-c6cccnc6)cc4C5)c3n21 [T-63] |  | > 1000 nM | > 1000 nM | ≤ 5 nM
≤ 5 nM | C[C@@H]1COCc2nc3cc(C(=O)Nc4ccc(OC(F)(F)Cl)cc4)cc(-c4cnc5c(c4)-c4nn(-c6nccc(-c7cncc(C#N)c7)n6)cc4C5)c3n21 [T-98, (R)-N-(4-(chlorodifluoromethoxy)phenyl)-6-(2-(4-(5-cyanopyridin-3-yl)pyrimidin-2-yl)-2,4-dihydropyrazolo[3',4':3,4]cyclopenta[1,2-b]pyridin-7-yl)-4-methyl-3,4-dihydro-1H-benzo[4,5]imidazo[2,1-c][1,4]oxazine-8-carboxamide] |  | ≤ 5 nM | > 1000 nM | ≤ 5 nM
≤ 5 nM | C[C@@H]1COCc2nc3cc(C(=O)Nc4ccc(OC(F)(F)Cl)cc4)cc(-c4cnc5c(c4)-c4nn(-c6nccc(-c7ccc(F)cc7)n6)cc4C5)c3n21 [T-89, (R)-N-(4-(chlorodifluoromethoxy)phenyl)-6-(2-(4-(4-fluorophenyl)pyrimidin-2-yl)-2,4-dihydropyrazolo[3',4':3,4]cyclopenta[1,2-b]pyridin-7-yl)-4-methyl-3,4-dihydro-1H-benzo[4,5]imidazo[2,1-c][1,4]oxazine-8-carboxamide] |  | ≤ 5 nM | > 1000 nM | ≤ 5 nM
≤ 5 nM | C[C@@H]1COCc2nc3cc(C(=O)Nc4ccc(OC(F)(F)Cl)cc4)cc(-c4ccc5c(c4)C(=O)N(C)C5)c3n21 [T-61, (R)-N-(4-(chlorodifluoromethoxy)phenyl)-4-methyl-6-(2-methyl-3-oxoisoindolin-5-yl)-3,4-dihydro-1H-benzo[4,5]imidazo[2,1-c][1,4]oxazine-8-carboxamide] |  | 5 to 50 nM | > 1000 nM | ≤ 5 nM

Reference: patent publication EP4768484A1, “HETEROCYCLIC FUSED RING COMPOUND, AND COMPOSITION AND USE THEREOF” (Shenzhen TargetRx, Inc., priority 2023, dated 2025)
